Active and inactive are the calls of the source.
Assays:
[1] = biological target: T1, Histone-lysine N-methyltransferase NSD2 (Homo sapiens, UniProt O96028); type: biochemical
T1 sequence (O96028 whole entry): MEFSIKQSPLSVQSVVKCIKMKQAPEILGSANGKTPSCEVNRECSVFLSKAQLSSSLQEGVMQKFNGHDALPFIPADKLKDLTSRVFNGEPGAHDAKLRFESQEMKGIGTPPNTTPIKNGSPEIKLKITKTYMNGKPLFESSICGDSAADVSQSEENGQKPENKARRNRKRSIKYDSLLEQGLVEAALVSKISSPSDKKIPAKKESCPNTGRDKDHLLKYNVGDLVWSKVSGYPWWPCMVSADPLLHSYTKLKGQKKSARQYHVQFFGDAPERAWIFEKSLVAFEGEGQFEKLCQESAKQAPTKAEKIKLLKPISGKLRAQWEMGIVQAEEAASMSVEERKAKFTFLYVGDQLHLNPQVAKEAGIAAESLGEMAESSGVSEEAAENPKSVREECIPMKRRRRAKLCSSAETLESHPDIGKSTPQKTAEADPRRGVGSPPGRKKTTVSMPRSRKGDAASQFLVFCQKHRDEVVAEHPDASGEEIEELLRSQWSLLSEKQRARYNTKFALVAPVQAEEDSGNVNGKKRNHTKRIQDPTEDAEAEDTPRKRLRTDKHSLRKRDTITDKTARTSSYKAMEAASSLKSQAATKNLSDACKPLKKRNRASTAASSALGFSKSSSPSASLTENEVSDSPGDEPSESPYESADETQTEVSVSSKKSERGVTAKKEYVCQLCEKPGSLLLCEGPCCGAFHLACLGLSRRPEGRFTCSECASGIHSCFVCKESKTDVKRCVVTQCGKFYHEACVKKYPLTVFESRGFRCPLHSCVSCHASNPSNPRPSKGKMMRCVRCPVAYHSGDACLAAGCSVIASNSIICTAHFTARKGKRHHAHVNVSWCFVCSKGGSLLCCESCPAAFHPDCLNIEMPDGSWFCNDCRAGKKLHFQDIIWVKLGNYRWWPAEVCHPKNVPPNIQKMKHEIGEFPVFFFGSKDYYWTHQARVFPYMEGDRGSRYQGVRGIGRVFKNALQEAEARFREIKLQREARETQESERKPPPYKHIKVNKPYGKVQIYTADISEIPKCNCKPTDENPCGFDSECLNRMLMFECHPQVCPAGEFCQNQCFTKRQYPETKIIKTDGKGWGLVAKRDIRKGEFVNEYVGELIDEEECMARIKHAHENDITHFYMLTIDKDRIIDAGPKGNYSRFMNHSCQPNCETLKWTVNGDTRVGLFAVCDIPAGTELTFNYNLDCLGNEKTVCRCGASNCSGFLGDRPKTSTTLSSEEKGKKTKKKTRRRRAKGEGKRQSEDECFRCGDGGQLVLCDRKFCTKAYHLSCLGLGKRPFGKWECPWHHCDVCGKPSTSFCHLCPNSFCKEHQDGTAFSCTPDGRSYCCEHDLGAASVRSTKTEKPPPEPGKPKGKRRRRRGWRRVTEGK

[2] = HIV-1 Env-mediated cell fusion inhibitors, dose response, CCR5-tropic Env (AID 2279); type: functional
[3] = biological target: Heat shock protein HSP 90-alpha (Homo sapiens, UniProt P07900); test: Luminescence-based dose response biochemical high throughput screening assay for inhibitors of the Heat Shock Protein 90 (HSP90). [Related pubchem assays: 1831 (Summary AID.), 1846 (Confirmation screen.), 1789 (Primary screen.)]
[4] = biological target: T2, Long-chain-fatty-acid--AMP ligase FadD28 (Mycobacterium tuberculosis, UniProt P9WQ59); test: Fluorescence polarization aasay to screen for inhibitors that compete for the binding of FadD28 to a bisubstrate Measured in Biochemical System Using Plate Reader - 2147-01_Inhibitor_Dose_CherryPick_Activity.; type: functional, Mycobacterium tuberculosis H37Rv
T2 sequence (P9WQ59 whole entry): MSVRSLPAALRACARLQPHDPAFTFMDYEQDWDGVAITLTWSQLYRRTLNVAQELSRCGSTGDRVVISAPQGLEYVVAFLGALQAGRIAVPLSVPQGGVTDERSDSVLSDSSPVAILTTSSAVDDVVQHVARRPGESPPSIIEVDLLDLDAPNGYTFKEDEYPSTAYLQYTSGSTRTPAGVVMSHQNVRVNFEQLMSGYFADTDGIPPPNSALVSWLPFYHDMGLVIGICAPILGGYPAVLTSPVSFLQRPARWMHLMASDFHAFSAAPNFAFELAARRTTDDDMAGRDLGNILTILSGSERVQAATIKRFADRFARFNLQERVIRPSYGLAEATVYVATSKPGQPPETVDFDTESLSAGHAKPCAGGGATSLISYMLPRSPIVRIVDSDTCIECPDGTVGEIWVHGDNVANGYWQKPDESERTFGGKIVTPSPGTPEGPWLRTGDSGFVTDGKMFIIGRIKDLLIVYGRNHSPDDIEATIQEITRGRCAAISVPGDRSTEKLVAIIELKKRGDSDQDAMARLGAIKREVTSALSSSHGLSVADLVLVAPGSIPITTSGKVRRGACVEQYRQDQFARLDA

[5] = biological target: T3, Voltage-gated N-type calcium channel alpha-1B subunit/Amyloid beta A4 precursor protein-binding family A member 1 (Homo sapiens, UniProt Q00975+Q02410); test: disruptors of Mint-PDZ/N-type channel peptide interaction – biochemical, HTRF, set 2, SAR follow-up (AID 434980); type: functional
T3 sequence (Q00975 whole entry): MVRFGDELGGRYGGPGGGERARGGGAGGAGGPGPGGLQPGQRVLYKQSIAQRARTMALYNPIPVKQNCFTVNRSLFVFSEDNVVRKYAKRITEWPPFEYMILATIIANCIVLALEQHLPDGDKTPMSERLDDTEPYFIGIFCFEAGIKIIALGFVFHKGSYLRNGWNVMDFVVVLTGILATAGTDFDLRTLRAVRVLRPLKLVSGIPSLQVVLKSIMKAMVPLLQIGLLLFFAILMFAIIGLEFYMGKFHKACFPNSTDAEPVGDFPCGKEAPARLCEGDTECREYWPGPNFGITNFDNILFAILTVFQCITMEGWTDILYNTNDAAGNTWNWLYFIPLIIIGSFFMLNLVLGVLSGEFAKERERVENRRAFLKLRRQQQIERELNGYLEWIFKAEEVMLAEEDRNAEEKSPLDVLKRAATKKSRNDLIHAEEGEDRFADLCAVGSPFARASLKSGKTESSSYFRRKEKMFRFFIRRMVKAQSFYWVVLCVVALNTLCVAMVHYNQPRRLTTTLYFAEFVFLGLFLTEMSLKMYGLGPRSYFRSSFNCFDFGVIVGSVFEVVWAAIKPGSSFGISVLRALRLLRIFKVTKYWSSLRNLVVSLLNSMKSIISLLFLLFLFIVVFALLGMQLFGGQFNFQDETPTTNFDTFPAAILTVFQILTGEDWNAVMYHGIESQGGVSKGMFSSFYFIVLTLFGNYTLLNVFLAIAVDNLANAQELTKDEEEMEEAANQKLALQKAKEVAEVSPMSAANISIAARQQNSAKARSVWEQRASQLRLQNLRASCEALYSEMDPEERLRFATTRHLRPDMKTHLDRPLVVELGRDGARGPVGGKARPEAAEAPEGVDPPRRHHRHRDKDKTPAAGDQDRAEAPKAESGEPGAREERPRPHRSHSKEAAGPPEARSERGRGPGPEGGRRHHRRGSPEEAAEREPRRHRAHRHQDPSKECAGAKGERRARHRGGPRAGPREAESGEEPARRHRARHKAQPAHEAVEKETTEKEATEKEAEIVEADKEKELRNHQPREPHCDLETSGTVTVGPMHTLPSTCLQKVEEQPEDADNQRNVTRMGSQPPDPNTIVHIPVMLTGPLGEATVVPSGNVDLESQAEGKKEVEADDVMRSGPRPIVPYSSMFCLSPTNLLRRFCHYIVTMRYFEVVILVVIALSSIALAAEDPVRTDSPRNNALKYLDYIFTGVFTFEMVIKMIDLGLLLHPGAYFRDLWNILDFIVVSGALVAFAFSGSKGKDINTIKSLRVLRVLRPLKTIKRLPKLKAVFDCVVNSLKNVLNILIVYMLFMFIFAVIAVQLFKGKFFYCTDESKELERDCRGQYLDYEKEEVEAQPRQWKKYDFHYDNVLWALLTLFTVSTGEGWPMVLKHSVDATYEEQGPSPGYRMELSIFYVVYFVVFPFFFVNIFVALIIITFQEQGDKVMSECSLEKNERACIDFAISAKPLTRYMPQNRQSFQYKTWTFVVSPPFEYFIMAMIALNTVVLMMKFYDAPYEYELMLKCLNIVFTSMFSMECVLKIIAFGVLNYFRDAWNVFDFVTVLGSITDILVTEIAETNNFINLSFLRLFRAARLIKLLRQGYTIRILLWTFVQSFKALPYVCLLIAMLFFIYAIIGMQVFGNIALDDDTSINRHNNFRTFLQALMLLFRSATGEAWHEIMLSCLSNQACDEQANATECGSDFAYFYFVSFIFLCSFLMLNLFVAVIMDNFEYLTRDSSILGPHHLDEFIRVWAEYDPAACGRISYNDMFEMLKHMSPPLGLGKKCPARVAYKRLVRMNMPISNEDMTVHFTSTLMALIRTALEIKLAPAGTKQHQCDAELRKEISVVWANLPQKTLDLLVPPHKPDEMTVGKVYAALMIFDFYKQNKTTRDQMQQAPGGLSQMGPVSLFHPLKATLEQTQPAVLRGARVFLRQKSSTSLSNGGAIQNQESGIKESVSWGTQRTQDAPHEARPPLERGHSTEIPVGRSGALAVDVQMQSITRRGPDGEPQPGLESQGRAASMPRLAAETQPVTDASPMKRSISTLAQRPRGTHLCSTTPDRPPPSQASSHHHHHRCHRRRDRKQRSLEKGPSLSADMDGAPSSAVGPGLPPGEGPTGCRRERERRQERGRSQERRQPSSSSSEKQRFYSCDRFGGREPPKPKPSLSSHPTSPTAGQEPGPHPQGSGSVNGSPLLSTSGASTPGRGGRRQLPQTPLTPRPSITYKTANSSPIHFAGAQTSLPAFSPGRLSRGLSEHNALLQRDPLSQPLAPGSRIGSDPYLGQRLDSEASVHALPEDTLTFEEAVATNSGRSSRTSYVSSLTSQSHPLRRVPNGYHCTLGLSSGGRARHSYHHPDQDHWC
T3 sequence (Q02410 whole entry): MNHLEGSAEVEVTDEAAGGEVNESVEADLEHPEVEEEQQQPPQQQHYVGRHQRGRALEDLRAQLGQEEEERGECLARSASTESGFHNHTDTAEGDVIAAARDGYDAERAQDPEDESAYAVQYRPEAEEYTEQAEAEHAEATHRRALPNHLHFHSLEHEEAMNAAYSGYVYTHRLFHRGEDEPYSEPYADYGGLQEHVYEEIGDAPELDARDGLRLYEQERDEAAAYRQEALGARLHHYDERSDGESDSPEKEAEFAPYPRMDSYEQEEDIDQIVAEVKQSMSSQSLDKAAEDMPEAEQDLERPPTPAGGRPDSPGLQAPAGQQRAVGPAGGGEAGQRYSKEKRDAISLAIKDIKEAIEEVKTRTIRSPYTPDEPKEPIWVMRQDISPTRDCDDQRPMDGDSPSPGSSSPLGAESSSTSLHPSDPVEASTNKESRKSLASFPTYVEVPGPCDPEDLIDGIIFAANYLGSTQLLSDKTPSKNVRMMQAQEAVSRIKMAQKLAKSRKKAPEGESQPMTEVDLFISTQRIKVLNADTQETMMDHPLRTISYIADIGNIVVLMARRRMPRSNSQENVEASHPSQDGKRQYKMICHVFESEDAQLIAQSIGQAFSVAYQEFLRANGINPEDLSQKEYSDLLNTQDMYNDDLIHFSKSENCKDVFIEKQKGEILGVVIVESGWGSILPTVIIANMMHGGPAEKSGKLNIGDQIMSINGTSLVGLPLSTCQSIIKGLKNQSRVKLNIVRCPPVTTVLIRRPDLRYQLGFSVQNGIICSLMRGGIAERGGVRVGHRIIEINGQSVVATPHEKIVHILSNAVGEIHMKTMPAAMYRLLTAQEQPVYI

Large T antigen = Large T antigen (Simian virus 40, UniProt P03070); type: functional, Betapolyomavirus macacae;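 also: Confirmatory-stage PubChem screen for compounds that inhibit SV40 T antigen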
[6] = biological target: T3, Voltage-gated N-type calcium channel alpha-1B subunit/Amyloid beta A4 precursor protein-binding family A member 1; type: protein assay
Genome polyprotein = Genome polyprotein (Hepatitis C virus, UniProt Q2Q167); test: HCV core protein dimerization inhibitors, dose response, biochemical, TR-FRET (AID 2159); design: species or system Hepacivirus hominis;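 also: blocks dimerization of HCV core protein measured by TR-FRET between tagged core106 pairs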
Genome polyprotein, sequence (Q2Q167 whole entry): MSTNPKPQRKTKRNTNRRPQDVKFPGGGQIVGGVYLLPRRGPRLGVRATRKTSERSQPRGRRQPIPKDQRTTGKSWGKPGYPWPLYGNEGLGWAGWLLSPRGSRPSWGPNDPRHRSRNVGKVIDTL

[7] = biological target: T3, Voltage-gated N-type calcium channel alpha-1B subunit/Amyloid beta A4 precursor protein-binding family A member 1; type: protein assay; remark: listed apart in the source
Albumin = Albumin (Bos taurus, UniProt P02769); test: Counterscreen for inhibitors of T-cell receptor (TCR)-CD3 interaction: Fluorescence-based biochemical high throughput dose response assay to identify inhibitors of T-cell receptor (TCR)-CD3 interaction using a TAMRA-labeled BSA probe.; type: functional
Estrogen receptor beta [8] = biological target: T4, Estrogen receptor beta (Homo sapiens, UniProt Q92731); test: ERβ–SRC-3 coactivator interaction inhibitors, confirmation, orthogonal assay, biochemical, ELISA, streptavidin-HRP readout (AID 1060)
T4 sequence (Q92731 whole entry): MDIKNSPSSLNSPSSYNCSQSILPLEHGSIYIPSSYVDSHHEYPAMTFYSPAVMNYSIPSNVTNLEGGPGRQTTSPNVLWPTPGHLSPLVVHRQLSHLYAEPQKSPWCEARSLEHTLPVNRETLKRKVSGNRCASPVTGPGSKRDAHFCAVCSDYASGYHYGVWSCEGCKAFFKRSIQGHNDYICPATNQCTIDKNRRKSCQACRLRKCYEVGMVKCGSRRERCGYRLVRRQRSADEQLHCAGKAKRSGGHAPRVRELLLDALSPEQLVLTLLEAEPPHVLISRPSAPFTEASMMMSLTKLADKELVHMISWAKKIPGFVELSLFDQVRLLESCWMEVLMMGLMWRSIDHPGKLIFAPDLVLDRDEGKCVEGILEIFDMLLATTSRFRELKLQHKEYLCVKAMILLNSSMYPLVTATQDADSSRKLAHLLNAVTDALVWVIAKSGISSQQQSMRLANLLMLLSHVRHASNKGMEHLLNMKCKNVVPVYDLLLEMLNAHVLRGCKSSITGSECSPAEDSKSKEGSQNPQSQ

[9] = biological target: T5, Heat shock factor protein 1 (Mus musculus, UniProt P38532); test: inhibition of MG132-induced HSE-luciferase signal, confirmation, cell-based, NIH3T3, luminescence, dose retest (AID 2382); type: functional;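 also: NIH3T3 fibroblasts with HSF1-driven luciferase reporter stressed by proteasome inhibitor MG132; luminescence from HSF1-driven luciferase expression after 8 hours of MG132 stress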
T5 sequence (P38532 whole entry): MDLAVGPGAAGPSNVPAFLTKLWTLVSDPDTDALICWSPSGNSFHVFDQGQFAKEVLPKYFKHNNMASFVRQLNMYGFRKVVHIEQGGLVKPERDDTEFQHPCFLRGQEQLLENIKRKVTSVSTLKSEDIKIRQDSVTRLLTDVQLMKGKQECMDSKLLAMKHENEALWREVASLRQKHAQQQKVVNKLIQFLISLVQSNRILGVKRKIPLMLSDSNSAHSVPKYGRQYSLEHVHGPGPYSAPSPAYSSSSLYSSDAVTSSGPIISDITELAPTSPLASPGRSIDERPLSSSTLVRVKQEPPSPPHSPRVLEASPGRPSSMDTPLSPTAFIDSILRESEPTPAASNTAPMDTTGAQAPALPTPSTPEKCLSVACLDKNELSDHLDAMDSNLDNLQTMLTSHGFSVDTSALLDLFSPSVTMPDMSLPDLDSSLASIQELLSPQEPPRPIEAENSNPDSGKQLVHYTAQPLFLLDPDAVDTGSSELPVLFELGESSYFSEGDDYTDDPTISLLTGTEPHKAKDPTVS

[10] = biological target: T3, Voltage-gated N-type calcium channel alpha-1B subunit/Amyloid beta A4 precursor protein-binding family A member 1; test: disruptors of Mint-PDZ/N-type channel peptide interaction – biochemical, HTRF, SAR follow-up (AID 2489); type: functional
[11] = biological target: Induced myeloid leukemia cell differentiation protein Mcl-1 (Homo sapiens, UniProt Q07820); type: functional
Induced myeloid leukemia cell differentiation protein Mcl-1, sequence (Q07820 whole entry): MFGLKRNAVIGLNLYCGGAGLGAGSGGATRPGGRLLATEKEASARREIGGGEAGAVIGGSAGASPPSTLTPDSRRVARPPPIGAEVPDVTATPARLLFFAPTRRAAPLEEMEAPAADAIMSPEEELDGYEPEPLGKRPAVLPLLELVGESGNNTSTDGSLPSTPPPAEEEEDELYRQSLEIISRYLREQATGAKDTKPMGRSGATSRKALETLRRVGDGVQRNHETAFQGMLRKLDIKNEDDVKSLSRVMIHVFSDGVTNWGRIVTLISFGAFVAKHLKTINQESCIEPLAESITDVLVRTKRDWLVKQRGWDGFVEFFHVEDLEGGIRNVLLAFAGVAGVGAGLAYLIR

[12] = biological target: Protein-tyrosine kinase 2-beta (Homo sapiens, UniProt Q14289);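 also: potency of inhibitors of PYK2 kinase phosphorylation of poly-GT substrate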
NADPH oxidase 1 = NADPH oxidase 1 (Homo sapiens, UniProt Q9Y5S8); test: Late-stage luminescence-based cell-based dose response assay to identify inhibitors of NADPH oxidase 1 (NOX1): Synthesized analogs.; type: functional
NADPH oxidase 1, sequence (Q9Y5S8 whole entry): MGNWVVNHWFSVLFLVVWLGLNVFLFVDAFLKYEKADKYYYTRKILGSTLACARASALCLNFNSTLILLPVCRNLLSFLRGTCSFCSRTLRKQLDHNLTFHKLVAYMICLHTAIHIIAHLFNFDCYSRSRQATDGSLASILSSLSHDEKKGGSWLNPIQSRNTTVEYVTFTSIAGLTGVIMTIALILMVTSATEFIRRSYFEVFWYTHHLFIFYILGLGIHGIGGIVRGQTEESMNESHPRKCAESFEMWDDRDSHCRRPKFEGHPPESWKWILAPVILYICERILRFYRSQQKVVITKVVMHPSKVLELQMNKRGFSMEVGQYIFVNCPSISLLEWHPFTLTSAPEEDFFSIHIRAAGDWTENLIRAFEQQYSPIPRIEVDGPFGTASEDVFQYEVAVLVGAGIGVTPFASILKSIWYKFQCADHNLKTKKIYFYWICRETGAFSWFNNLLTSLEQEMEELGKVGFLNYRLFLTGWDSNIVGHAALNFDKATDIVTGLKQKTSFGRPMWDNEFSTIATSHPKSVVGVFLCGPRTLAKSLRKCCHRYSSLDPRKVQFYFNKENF

Estrogen receptor = biological target: T6, Estrogen receptor (Homo sapiens, UniProt P03372);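 also: potency for inhibiting coactivator peptide recruitment to the receptor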
T6 sequence (P03372 whole entry): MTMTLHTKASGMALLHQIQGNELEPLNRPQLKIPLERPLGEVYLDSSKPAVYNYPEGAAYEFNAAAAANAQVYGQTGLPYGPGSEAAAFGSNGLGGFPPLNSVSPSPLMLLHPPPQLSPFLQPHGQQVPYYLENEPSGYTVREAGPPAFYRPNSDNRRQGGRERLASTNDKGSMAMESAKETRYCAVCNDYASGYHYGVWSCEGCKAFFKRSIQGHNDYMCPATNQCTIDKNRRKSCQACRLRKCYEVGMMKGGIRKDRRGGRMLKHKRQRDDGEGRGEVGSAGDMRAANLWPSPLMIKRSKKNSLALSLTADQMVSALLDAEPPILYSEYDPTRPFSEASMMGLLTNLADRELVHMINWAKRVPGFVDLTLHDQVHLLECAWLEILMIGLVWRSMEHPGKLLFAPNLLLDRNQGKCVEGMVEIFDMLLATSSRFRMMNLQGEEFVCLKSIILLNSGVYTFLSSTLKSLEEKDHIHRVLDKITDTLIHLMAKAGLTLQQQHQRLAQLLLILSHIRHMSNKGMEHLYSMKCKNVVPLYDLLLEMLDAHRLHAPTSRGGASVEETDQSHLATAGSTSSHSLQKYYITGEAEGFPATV

Estrogen receptor beta [13] = biological target: T4, Estrogen receptor beta
CAAX prenyl protease 2 = biological target: T7, CAAX prenyl protease 2 (Homo sapiens, UniProt Q9Y256); test: human Rce1 protease inhibitors, dose response, biochemical, yeast membranes, quenched-peptide fluorescence, cherry-pick (AID 588849)
T7 sequence (Q9Y256 whole entry): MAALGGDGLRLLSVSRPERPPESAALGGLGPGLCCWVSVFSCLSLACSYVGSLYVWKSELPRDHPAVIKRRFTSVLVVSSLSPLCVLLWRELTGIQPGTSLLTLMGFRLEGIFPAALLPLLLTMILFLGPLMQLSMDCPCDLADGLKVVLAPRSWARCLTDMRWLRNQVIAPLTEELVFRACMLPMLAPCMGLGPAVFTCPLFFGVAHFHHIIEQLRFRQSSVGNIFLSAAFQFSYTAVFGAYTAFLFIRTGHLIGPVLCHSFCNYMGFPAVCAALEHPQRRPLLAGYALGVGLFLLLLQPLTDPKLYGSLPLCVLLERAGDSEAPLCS

Heat shock protein HSP90 = Heat shock protein HSP90 (Homo sapiens, UniProt P07900+P08238); test: tumor Hsp90 inhibitor potency, dose response (AID 712); type: functional
Trypsin = Trypsin (Sus scrofa, UniProt P00761); test: porcine trypsin inhibitors, dose response, selectivity assay for Rce1 protease inhibitor project, biochemical, quenched peptide fluorescence, cherry-pick (AID 488789)
Trypsin, sequence (P00761 whole entry): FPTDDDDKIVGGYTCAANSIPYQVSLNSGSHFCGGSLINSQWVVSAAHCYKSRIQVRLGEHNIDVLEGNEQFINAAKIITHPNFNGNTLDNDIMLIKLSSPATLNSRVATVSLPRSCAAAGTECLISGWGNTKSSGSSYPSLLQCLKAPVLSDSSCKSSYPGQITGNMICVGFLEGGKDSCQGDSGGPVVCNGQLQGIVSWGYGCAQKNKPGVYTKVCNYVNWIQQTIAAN

Prothrombin = Prothrombin (Homo sapiens, UniProt P00734); test: Thrombin 1536 HTS Dose Response Confirmation. [Related pubchem assays: 1046 (Thrombin 1536 HTS; hits were confirmed in this assay)]; type: functional
Vero = test: West Nile virus antiviral activity, cell-based, CPE readout (AID 1621); type: functional; conditions: Chlorocebus sabaeus
[14] = cytotoxicity in HEK-293T cells, dose response, cytotoxicity control for TCR NF-kB inhibitor project, luminescence, T-cell screen hits (AID 489026); type: functional, cell-based;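 also: cells exposed to compound about 14 hours before the viability readout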
[15] = biological target: T8, Microphthalmia-associated transcription factor (Homo sapiens, UniProt O75030); test: TRPM1 promoter luciferase signal decrease, dose response, MITF inhibitor project, cell-based, SK-MEL-5, cherry-picked, set 3 (AID 493073); type: functional
T8 sequence (O75030 whole entry): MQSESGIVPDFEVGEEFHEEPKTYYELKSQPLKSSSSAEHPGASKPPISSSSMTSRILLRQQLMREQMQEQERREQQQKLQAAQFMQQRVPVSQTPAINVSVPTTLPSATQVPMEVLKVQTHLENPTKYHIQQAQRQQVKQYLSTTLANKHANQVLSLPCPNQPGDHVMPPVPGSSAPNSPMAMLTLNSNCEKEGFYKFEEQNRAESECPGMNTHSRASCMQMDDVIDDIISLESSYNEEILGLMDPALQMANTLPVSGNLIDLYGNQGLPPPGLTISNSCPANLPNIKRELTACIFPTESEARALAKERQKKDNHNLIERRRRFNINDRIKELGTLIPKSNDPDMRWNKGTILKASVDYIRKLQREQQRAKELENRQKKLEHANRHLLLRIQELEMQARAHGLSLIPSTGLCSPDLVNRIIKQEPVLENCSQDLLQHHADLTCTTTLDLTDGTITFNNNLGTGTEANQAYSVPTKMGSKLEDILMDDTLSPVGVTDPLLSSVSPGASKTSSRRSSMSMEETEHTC

COc1ccc(C(=O)Oc2ccc(/C=N/Nc3ccc(Cl)c(C(=O)O)c3)cc2OC)cc1
AC50 [1]: > 20 µM (inactive) | IC50 [2]: 7.02 µM (active) | IC50 [3]: 1.5 µM (active) | AC50 [4]: 99.3 µM (active)

Nc1ncnc2oc(-c3ccco3)c(-c3ccco3)c12
IC50 [5]: 2.42 µM (active) | IC50 (Large T antigen): 49.5 µM (active) | IC50 [6]: 2.6 µM (active) | IC50 (Genome polyprotein): > 49.8 µM (not active) | IC50 [7]: 3.82 µM (active) | IC50 (Albumin): > 94.1 µM (inactive) | IC50 (Estrogen receptor beta [8]): 3.4 µM (not active) | EC50 [9]: 56.7 µM (active) | IC50 [10]: 21.7 µM (active) | IC50 [11]: 4.12 µM (active) | IC50 [12]: 2.92 µM (active)

CC(=NNc1cccc(C(=O)O)c1)c1ccc2c(c1)Nc1ccccc1S2
IC50 (NADPH oxidase 1): 0.305 µM (active)

COc1ccc(OC)c(/C=N/c2oc(-c3ccco3)c(-c3ccco3)c2C#N)c1
IC50 (Estrogen receptor): 16.3 µM (active) | IC50 (Estrogen receptor beta [13]): 6.47 µM (active) | IC50 (Estrogen receptor beta [8]): 9.23 µM (not active) | AC50 (CAAX prenyl protease 2): 4.46 µM (active) | IC50 [11]: 6.88 µM (active) | IC50 (Heat shock protein HSP90): 21.1062 µM | AC50 (Trypsin): 7.23 µM (active)

COc1ccc(C(=O)n2c(SC)nc3cc4c(cc32)OCCO4)cc1
IC50 (Prothrombin): 0.955 µM (active)

CC(C)c1oc(=O)cc2c1[C@@H](O)[C@H]1OC(=O)[C@@]3(C)C[C@@H](O)[C@@H](O)[C@@]2(C)C13 (some centres not stated)
IC50 (Vero): 30.5 µM (active) | IC50 [14]: > 80 µM (inactive) | AC50 [15]: 1.63 µM (active)

— ChEMBL document CHEMBL1201862, “PubChem BioAssay data set” (2004)
